Test results published in patent US8680094B2, “1, 4-benzoxazine compounds and derivatives thereof as therapeutic drugs for the treatment of neurodegenerative conditions” (Board of Regents, The University of Texas System, priority 2008, dated 2014).

Columns and labels:
B-Raf = biological target: T1, B-Raf (Homo sapiens, UniProt P15056); assay: In vitro kinase activity; format: biochemical; conditions: percentage of control assays without compound, mean of duplicate
T1 construct: in some cases SignalChem; host or cells: Sf9 insect cells (baculovirus)
Protocol: (§1) To better understand the mechanism of action of the compounds of the present invention, but in no way a limitation; the effects of HSB-13 and ASK-2a on 20 different kinases were examined in vitro. At 500 nM concentration, ASK-2a inhibited the kinase activities of GSK3α, GSK3β, p38α, p38β, JNK3, MLK3, and B-Raf substantially. […] As described above, ASK-2a protects cerebellar granule neurons against LK-induced death but is ineffective against HCA-induced toxicity of HT-22 cells. In contrast, HSB-13 is protective in both paradigms. […] Previous studies have established that CDK inhibitors can protect neurons against a number of different apoptotic stimuli.
(§2) The activity of each kinase was measured in vitro in the presence either 100 nM or 500 nM ASK-2a. Kinase activity is expressed as a percentage of that in control assays (without ASK-2a). The values are mean of assays performed in duplicate. Substantial inhibition of kinase activity (>20%) is in bold type.
(§3) Table 3: Effect of HSB-13 at 500 nM on 20 different kinases measured in vitro. Kinase activity is expressed as a percentage of that in control assays (without HSB-13). The values are mean of assays performed in duplicate. Substantial inhibition of kinase activity (>20%) is in bold type.
(§4) Effect of chemical compounds c-Raf and B-Raf purified from insect cells. In vitro kinase assays were performed using purified kinase (expressed by baculovirus in Sf9 insect cells) and synthetic substrates under standard conditions using the Kinase Profiling service of Upstate Biotechnology. Briefly, for each assay 5-10 mU of purified kinase is incubated with the chemical compound (0.1-1 uM concentration) in a buffer containing 8 mM MOPS, pH 7.2, 0.2 mM EDTA, 10 mM Mg Acetate and [γ-^33P-ATP] for 40 min at room temperature. MBP is used as substrate. Kinase activity is quantified by measuring ^33P incorporation by spotting an aliquot on P30 filters, washing in 50 mM phosphoric acid and scintillation counting.
(§5) In some cases, effects on c-Raf and B-Raf are assayed by SignalChem as follows. Protein kinase assays (in duplicate or triplicate) were performed at ambient temperature for 20-40 minutes in a final volume of 25 μl. The assay was initiated by the addition of ^33P-ATP and the reaction mixture incubated at ambient temperature for 20-40 minutes, depending on the protein kinase target. After the incubation period, the assay was terminated by spotting 10 μl of the reaction mixture onto Multiscreen phosphocellulose P81 plate. The Multiscreen phosphocellulose P81 plate was washed 3 times for approximately 15 minutes each in a 1% phosphoric acid solution.
(§6) The radioactivity on the P81 plate was counted in the presence of scintillation fluid in a Trilux scintillation counter. Blank control is included all the assay components except the addition of the appropriate substrate (replace with equal volume of assay dilution buffer), was set up for each protein kinase target. The corrected activity for each protein kinase target was determined by removing the blank control value.

c-Raf = biological target: T2, c-Raf (Homo sapiens, UniProt P04049); assay: In vitro kinase activity; format: biochemical; conditions: percentage of control assays without compound, mean of duplicate
T2 construct: in some cases SignalChem; host or cells: Sf9 insect cells (baculovirus)
Protocol: as §1, §2, §3, §4, §5, §6

[1] = tested on: 3-NP-induced mouse model of Huntington's disease; assay: 3-nitropropionic acid (3-NP)-induced mouse model of Huntington's disease; format: in vivo
Protocol: 3-Nitropropionic acid administration and behavioral evaluation was done on 8-week old C57BL/6 male mice (Charles River Laboratories, Inc, Wilmington, Mass.) administered with 3-NP in ten intraperitoneal injections (50 mg/kg twice a day for 5 days) with or without HSB-13 (2 mg/kg). Injections of HSB-13 were performed 30 min before 3-NP administration. Control animals received saline injections. On the day following the 5 days of injection, locomotor activity was assessed using The TRU-SCAN® activity monitoring system (Coulborn Instruments, PA) as previously described (Chin et al., 2004; Chen et al., 2008b). The following behavioral parameters were selected: (1) Total movements time, (2) Total movement distance: the sum of all vectored X-Y coordinate changes in the floor plane, (3)Average distance per movement, (4) Mean velocity: the mean velocity of all X-T coordinate change defined movements. Following behavioral evaluation, the mice were deeply anesthetized and brains removed. The brains were fixed in 4% paraformaldehyde in 0.1 M phosphate buffer and cryoprotected in 20% sucrose in 0.1 M phosphate buffer. Coronal sections were cut on a cryostat at 40 microns and stained with cresyl violet (Sigma-Aldrich) as previously described (Chin et al., 2004; Chen et al., 2008b).
3-Nitropropionic acid administration and behavioral evaluation. 8-week old C57BL/6 male mice (Charles River Laboratories, Inc, Wilmington, Mass.) were administered with 3-NP in ten intraperitoneal injections (50 mg/kg twice a day for 5 days) with or without HSB-13 […]). Injections of HSB-13 were performed ˜30 min before 3-NP administration. Control animals received saline injections. On the day following the 5 days of injection, locomotor activity was assessed using THE TRU-SCAN® activity monitoring system (Coulborn Instruments, PA) as previously described (Chin et al. 2004). The following behavioral parameters were selected: (i) Total movements episodes: each movement in the floor plane is a series of coordinate changes with no rest for at least 1 sample interval, (2) Total movement distance: the sum of all vectored X-Y coordinate changes in the floor plane, and (3) Mean velocity: the mean velocity of all X-T coordinate change defined movements. Following behavioral evaluation, the mice were deeply anesthetized and brains removed. The brains were fixed in 4% paraformaldehyde in 0.1 M phosphate buffer and cryoprotected in 20% sucrose in 0.1 M phosphate buffer. Coronal sections were cut on a cryostat at 50 microns and stained with cresyl violet (Sigma).

T2 sequence (P04049 whole entry): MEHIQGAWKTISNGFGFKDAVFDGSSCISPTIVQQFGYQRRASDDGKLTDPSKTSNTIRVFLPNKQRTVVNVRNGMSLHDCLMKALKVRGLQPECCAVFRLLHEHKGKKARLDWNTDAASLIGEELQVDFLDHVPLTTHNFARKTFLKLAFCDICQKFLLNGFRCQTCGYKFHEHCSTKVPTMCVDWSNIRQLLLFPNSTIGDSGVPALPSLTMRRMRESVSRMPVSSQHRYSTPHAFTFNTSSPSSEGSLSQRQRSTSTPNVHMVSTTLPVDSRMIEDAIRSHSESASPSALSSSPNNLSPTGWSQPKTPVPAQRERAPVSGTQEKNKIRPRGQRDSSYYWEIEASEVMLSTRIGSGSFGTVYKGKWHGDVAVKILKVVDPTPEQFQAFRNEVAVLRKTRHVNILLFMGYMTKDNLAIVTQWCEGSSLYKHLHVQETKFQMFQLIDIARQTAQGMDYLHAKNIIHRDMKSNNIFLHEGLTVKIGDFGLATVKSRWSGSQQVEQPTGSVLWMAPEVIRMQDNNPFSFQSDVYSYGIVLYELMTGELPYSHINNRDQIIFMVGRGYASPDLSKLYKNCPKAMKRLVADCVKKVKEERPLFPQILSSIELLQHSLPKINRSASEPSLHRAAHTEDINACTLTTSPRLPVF
T1 sequence (P15056 whole entry): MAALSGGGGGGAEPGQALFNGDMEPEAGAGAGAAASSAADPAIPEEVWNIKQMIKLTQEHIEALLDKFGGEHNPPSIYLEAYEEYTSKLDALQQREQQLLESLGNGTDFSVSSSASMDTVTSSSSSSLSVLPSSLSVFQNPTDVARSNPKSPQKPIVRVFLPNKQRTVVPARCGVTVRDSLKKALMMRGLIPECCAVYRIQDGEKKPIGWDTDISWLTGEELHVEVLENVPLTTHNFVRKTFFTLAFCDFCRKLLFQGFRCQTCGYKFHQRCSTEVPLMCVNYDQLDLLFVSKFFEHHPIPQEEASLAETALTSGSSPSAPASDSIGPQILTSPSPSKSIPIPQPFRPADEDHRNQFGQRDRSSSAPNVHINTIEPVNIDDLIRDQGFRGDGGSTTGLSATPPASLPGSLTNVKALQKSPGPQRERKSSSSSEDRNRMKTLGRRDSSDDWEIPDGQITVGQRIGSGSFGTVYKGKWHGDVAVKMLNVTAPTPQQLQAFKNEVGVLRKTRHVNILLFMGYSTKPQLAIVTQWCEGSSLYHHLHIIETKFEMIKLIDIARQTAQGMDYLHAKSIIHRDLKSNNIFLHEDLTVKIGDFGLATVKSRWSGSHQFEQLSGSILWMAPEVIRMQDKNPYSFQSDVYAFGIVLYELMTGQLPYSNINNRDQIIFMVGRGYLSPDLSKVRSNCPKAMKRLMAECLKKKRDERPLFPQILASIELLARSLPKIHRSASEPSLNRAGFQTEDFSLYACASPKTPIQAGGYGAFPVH

| Structure (SMILES) | % ACTIVITY (B-Raf; 100 nM, 0.1 µM) [%] | % ACTIVITY (B-Raf; 100 nM, listed as ASK2a, 0.1 µM) | % ACTIVITY (c-Raf; 100 nM) [%] | % ACTIVITY (c-Raf; 500 nM) [%] | % ACTIVITY (B-Raf; 500 nM) [%] | 3-NP-induced striatal degeneration (cresyl violet histology) ([1]; HSB-13 2 mg/kg body weight, 30 min before each 3-NP injection (50 mg/kg i.p. twice a day, 5 days), FIG. 7A) | locomotor performance: total movement time, total movement distance, average distance per movement, mean velocity ([1]; HSB-13 2 mg/kg, versus 3-NP alone, 15 min period, FIG. 7B) | 3-NP-induced striatal degeneration (cresyl violet histology) ([1]; HSB-13 2.5 mg/kg body weight, FIG. 10A) | locomotor performance: total movement episodes, total movement distance, mean velocity ([1]; HSB-13 2.5 mg/kg, versus 3-NP alone, FIG. 10B) |
| --- | --- | --- | --- | --- | --- | --- | --- | --- | --- |
| O=C1Nc2ccccc2OC1=Cc1cc(Br)c(O)c(Br)c1 [ASK-2a] | 79 | inhibited efficiently | 92 | 88 |  |  |  |  |  |
| Nc1ccc2c(c1)NC(=O)/C(=C/c1cc(Br)c(O)c(Br)c1)O2 [HSB-13, (Z)-6-amino-2-(3,′5′-dibromo-4′-hydrozybenzylidene)-2H-benzo[b][1,4]oxazin-3(4H)-one] |  |  | 97 |  | 43 | substantially reduced | markedly higher | substantially reduced | markedly higher |
